Our source for the mutagenic call values is PubChem BioAssay AID1259407 (Chemical Carcinogenesis Research Information System (CCRIS), 2018).

Calls of active or inactive are those of the source. No rule for the calls is given here.

The series relates to CCRIS mutagenicity, Ames/micronucleus/aberration tests. In words: CCRIS mutagenicity studies.
Where [1] appears, read: Test System: AMES SALMONELLA TYPHIMURIUM, Strain/Indicator: TA98, Metabolic Activation: NONE, Method: STANDARD PLATE.
The mark [2] stands for this setting: Test System: AMES SALMONELLA TYPHIMURIUM, Strain/Indicator: TA98, Metabolic Activation: RAT, LIVER, S-9, AROCLOR 1254, Method: STANDARD PLATE.
Where [3] appears, read: Test System: AMES SALMONELLA TYPHIMURIUM, Strain/Indicator: TA100, Metabolic Activation: NONE, Method: STANDARD PLATE.
Where [4] appears, read: Test System: AMES SALMONELLA TYPHIMURIUM, Strain/Indicator: TA100, Metabolic Activation: RAT, LIVER, S-9, AROCLOR 1254, Method: STANDARD PLATE.
The mark [5] stands for this setting: Test System: AMES SALMONELLA TYPHIMURIUM, Strain/Indicator: TA1535, Metabolic Activation: NONE, Method: STANDARD PLATE.

As to `FC(F)(F)c1ccccc1Cl`, the mutagenic call (Test System: AMES SALMONELLA TYPHIMURIUM, Strain/Indicator: TA97, Metabolic Activation: HAMSTER, LIVER, S-9, AROCLOR 1254 (10%), Method: PREINCUBATION) was “inactive; negative”; the mutagenic call (Test System: AMES SALMONELLA TYPHIMURIUM, Strain/Indicator: TA97, Metabolic Activation: HAMSTER, LIVER, S-9, AROCLOR 1254 (30%), Method: PREINCUBATION) is “inactive; negative”; the mutagenic call (Test System: AMES SALMONELLA TYPHIMURIUM, Strain/Indicator: TA97, Metabolic Activation: NONE, Method: PREINCUBATION) was “inactive; negative”; the mutagenic call (Test System: AMES SALMONELLA TYPHIMURIUM, Strain/Indicator: TA97, Metabolic Activation: RAT, LIVER, S-9, AROCLOR 1254 (10%), Method: PREINCUBATION) is “inactive; negative”; the mutagenic call (Test System: AMES SALMONELLA TYPHIMURIUM, Strain/Indicator: TA97, Metabolic Activation: RAT, LIVER, S-9, AROCLOR 1254 (30%), Method: PREINCUBATION) is “inactive; negative”; the mutagenic call (Test System: AMES SALMONELLA TYPHIMURIUM, Strain/Indicator: TA98, Metabolic Activation: HAMSTER, LIVER, S-9, AROCLOR 1254 (10%), Method: PREINCUBATION) was “inactive; negative”. The mutagenic call (Test System: AMES SALMONELLA TYPHIMURIUM, Strain/Indicator: TA98, Metabolic Activation: HAMSTER, LIVER, S-9, AROCLOR 1254 (30%), Method: PREINCUBATION) was “inactive; negative”; the mutagenic call (Test System: AMES SALMONELLA TYPHIMURIUM, Strain/Indicator: TA98, Metabolic Activation: NONE, Method: PREINCUBATION) is “inactive; negative”; the mutagenic call under setting [1] was “inactive; negative”; the mutagenic call (Test System: AMES SALMONELLA TYPHIMURIUM, Strain/Indicator: TA98, Metabolic Activation: RAT, LIVER, S-9, AROCLOR 1254 (10%), Method: PREINCUBATION) was “inactive; negative”; the mutagenic call (Test System: AMES SALMONELLA TYPHIMURIUM, Strain/Indicator: TA98, Metabolic Activation: RAT, LIVER, S-9, AROCLOR 1254 (30%), Method: PREINCUBATION) was “inactive; negative”; the mutagenic call under setting [2] was “inactive; negative”. In addition, the mutagenic call runs as follows: (Test System: AMES SALMONELLA TYPHIMURIUM, Strain/Indicator: TA100, Metabolic Activation: HAMSTER, LIVER, S-9, AROCLOR 1254 (10%), Method: PREINCUBATION) “inactive; negative”; (Test System: AMES SALMONELLA TYPHIMURIUM, Strain/Indicator: TA100, Metabolic Activation: HAMSTER, LIVER, S-9, AROCLOR 1254 (30%), Method: PREINCUBATION) “inactive; negative”; (Test System: AMES SALMONELLA TYPHIMURIUM, Strain/Indicator: TA100, Metabolic Activation: NONE, Method: PREINCUBATION) “inactive; negative”; under setting [3], “inactive; negative”; (Test System: AMES SALMONELLA TYPHIMURIUM, Strain/Indicator: TA100, Metabolic Activation: RAT, LIVER, S-9, AROCLOR 1254 (10%), Method: PREINCUBATION) “inactive; negative”; (Test System: AMES SALMONELLA TYPHIMURIUM, Strain/Indicator: TA100, Metabolic Activation: RAT, LIVER, S-9, AROCLOR 1254 (30%), Method: PREINCUBATION) “inactive; negative”. Moreover, the mutagenic call runs as follows: under setting [4], “inactive; negative”; (Test System: AMES SALMONELLA TYPHIMURIUM, Strain/Indicator: TA1535, Metabolic Activation: HAMSTER, LIVER, S-9, AROCLOR 1254 (10%), Method: PREINCUBATION) “inactive; negative”; (Test System: AMES SALMONELLA TYPHIMURIUM, Strain/Indicator: TA1535, Metabolic Activation: HAMSTER, LIVER, S-9, AROCLOR 1254 (30%), Method: PREINCUBATION) “inactive; negative”; (Test System: AMES SALMONELLA TYPHIMURIUM, Strain/Indicator: TA1535, Metabolic Activation: NONE, Method: PREINCUBATION) “inactive; negative”; under setting [5], “inactive; negative”; (Test System: AMES SALMONELLA TYPHIMURIUM, Strain/Indicator: TA1535, Metabolic Activation: RAT, LIVER, S-9, AROCLOR 1254 (10%), Method: PREINCUBATION) “inactive; negative”. Also, the mutagenic call is “inactive; negative” (Test System: AMES SALMONELLA TYPHIMURIUM, Strain/Indicator: TA1535, Metabolic Activation: RAT, LIVER, S-9, AROCLOR 1254 (30%), Method: PREINCUBATION); “inactive; negative” (Test System: AMES SALMONELLA TYPHIMURIUM, Strain/Indicator: TA1535, Metabolic Activation: RAT, LIVER, S-9, AROCLOR 1254, Method: STANDARD PLATE); “inactive; negative” (Test System: AMES SALMONELLA TYPHIMURIUM, Strain/Indicator: TA1537, Metabolic Activation: HAMSTER, LIVER, S-9, AROCLOR 1254 (30%), Method: PREINCUBATION); “inactive; negative” (Test System: AMES SALMONELLA TYPHIMURIUM, Strain/Indicator: TA1537, Metabolic Activation: NONE, Method: PREINCUBATION); “inactive; negative” (Test System: AMES SALMONELLA TYPHIMURIUM, Strain/Indicator: TA1537, Metabolic Activation: NONE, Method: STANDARD PLATE); “inactive; negative” (Test System: AMES SALMONELLA TYPHIMURIUM, Strain/Indicator: TA1537, Metabolic Activation: RAT, LIVER, S-9, AROCLOR 1254 (30%), Method: PREINCUBATION). Moreover, the mutagenic call reads like this: (Test System: AMES SALMONELLA TYPHIMURIUM, Strain/Indicator: TA1537, Metabolic Activation: RAT, LIVER, S-9, AROCLOR 1254, Method: STANDARD PLATE) “inactive; negative”; (Test System: AMES SALMONELLA TYPHIMURIUM, Strain/Indicator: TA1538, Metabolic Activation: NONE, Method: STANDARD PLATE) “inactive; negative”; (Test System: AMES SALMONELLA TYPHIMURIUM, Strain/Indicator: TA1538, Metabolic Activation: RAT, LIVER, S-9, AROCLOR 1254, Method: STANDARD PLATE) “inactive; negative”.
On to `CC1=C[C@H]2O[C@@H]3[C@H](O)C[C@](C)([C@@]2(CO)[C@H](O)C1=O)[C@]31CO1`, for which the mutagenic call (End Point: IN VITRO CHROMOSOMAL ABERRATIONS, Test System: CHINESE HAMSTER V79 CELLS, Metabolic Activation: NONE) was “active; positive (structural changes)”; the mutagenic call under setting [1] is “inactive; negative”; the mutagenic call (Test System: AMES SALMONELLA TYPHIMURIUM, Strain/Indicator: TA98, Metabolic Activation: RAT LIVER S-9, DELOR 103, Method: STANDARD PLATE) was “inactive; negative”; the mutagenic call under setting [2] was “inactive; negative”; the mutagenic call under setting [3] was “inactive; negative”; the mutagenic call (Test System: AMES SALMONELLA TYPHIMURIUM, Strain/Indicator: TA100, Metabolic Activation: RAT LIVER S-9, DELOR 103, Method: STANDARD PLATE) was “inactive; negative”. In addition, under setting [4], the mutagenic call is “inactive; negative”.
As for `C[C@@H]1C[C@@]2(C)[C@@H](CC[C@@H]3[C@@H]2CC[C@]2(C)[C@@H](O)CC[C@@H]32)CC1=O`, the mutagenic call is “inactive; negative” under setting [1]; “inactive; negative” (Test System: AMES SALMONELLA TYPHIMURIUM, Strain/Indicator: TA98, Metabolic Activation: S-9, Method: STANDARD PLATE); “inactive; negative” under setting [3]; “inactive; negative” (Test System: AMES SALMONELLA TYPHIMURIUM, Strain/Indicator: TA100, Metabolic Activation: S-9, Method: STANDARD PLATE); “inactive; negative” (Test System: E. COLI, Strain/Indicator: WP2 (HCR), Metabolic Activation: NONE, Method: STANDARD PLATE); “inactive; negative” (Test System: E. COLI, Strain/Indicator: WP2 (HCR), Metabolic Activation: S-9, Method: STANDARD PLATE).
As to `[N-]=[N+]=NC[C@@H]1O[C@H](O)[C@H](O)[C@@H](O)[C@@H]1O`, the mutagenic call runs as follows: under setting [1], “inactive; negative”; under setting [3], “active; positive”.
In the case of `NC(Cc1c[nH]c2ccccc12)C(=O)O` (stereo not given), the mutagenic call (Test System: AMES SALMONELLA TYPHIMURIUM, Strain/Indicator: TA98, Metabolic Activation: RAT LIVER S-9, CHLOROPHENE, Method: STANDARD PLATE (COMPOUND HEATED AT 250 DEGREES CELSIUS FOR 20 MIN)) is “inactive; negative”.
For `Oc1cccc2c3ccccc3c3cc4ccccc4cc3c12`, the mutagenic call (Test System: AMES SALMONELLA TYPHIMURIUM, Strain/Indicator: TA100, Metabolic Activation: RAT, LIVER, S-9, AROCLOR 1254, Method: PREINCUBATION) is “inactive; negative”.
In the case of `CC[C@@H](C)OS(C)(=O)=O`, the mutagenic call was “inactive; negative” under setting [3]; “active; positive” under setting [5]; “active; positive” (Test System: CHINESE HAMSTER V-79, Strain/Indicator: V-79/6-THIOGUANINE, Metabolic Activation: NONE).
For the compound `C1CC2OC2CCC2OC12` (stereo not given), the mutagenic call reads like this: under setting [3], “inactive; negative”; under setting [5], “inactive; negative”.
